Numbered stars: 1 amine (or outer) side, 2 acyl side, 3 side chain; on linkers, the order of the positions; unused ones are H or OH. Square brackets hold non-standard residues; d marks the D form. Side chains are listed from the residue outwards. Peptide text beside a SMILES is read from it. * marks the point of attachment. Undecanoyl(11-OPh(4-COOH)) = O=C(O)c1ccc(OCCCCCCCCCCC(=O)*)cc1; γGlu = O=C(O)[C@H](CCC(=O)[*:2])N[*:1]; εLys = N[C@@H](CCCCN[*:1])C(=O)[*:2]; Aib = CC(C)(N)C(=O)O
Experiments:
human GLP-1 receptor [1] = biological target: T1, human GLP-1 receptor (Homo sapiens, UniProt P43220); assay: In vitro potency (CRE luciferase; whole cells); assay type: cell-based; set-up: EC50/pM (ratio 1% HSA/0% HSA): unit not given here; conditions: for EC50: BHK cells; for EC50/pM (ratio 1% HSA/0% HSA): ratio of EC50 at 1% HSA to EC50 at 0% HSA
T1 construct: expressed in transfected cells; host or cells: BHK cells, clone FCW467-12A/KZ10-1 (parent line BHKTS13), further transfected with CRE luciferase
Method in brief: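 Reporter: CRE-luciferase in BHK cells stably expressing human GLP-1R, 5×10^3 cells/well; compounds tested in buffer containing 0% or 1% HSA.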

[2] = Pharmacokinetic (PK) study in rat; conditions: male, Sprague Dawley, in vivo, iv, 6 nmol/kg
Experimental: The purpose of this Example is to investigate half-life in vivo in rat.
In vivo pharmacokinetic studies in rats were performed with the GLP-1 derivatives of a number of the Example compounds, as described in the following.
Male Sprague Dawley rats of same age with a body weight of approximately 400 g were obtained from Taconic (Denmark) and assigned to the treatments by simple randomisation on body weight, approximately 4 rats per group.
The GLP-1 derivatives (approximately 6 nmol/ml) were dissolved in 50 mM sodium phosphate, 145 mM sodium chloride, 0.05% tween 80, pH 7.4. Intravenous injections (1.0 ml/kg) of the compounds were given with a syringe in the tail vein of conscious rats. Blood was sampled from vena sublingualis for 5 days post dosing. Blood samples (200 μl) were collected in EDTA buffer (8 mM) and then centrifuged at 4° C. and 10000 G for 5 minutes. Plasma samples were kept at −20° C. until analyzed for plasma concentration of the respective GLP-1 compound.
The donor beads were coated with streptavidin, while acceptor beads were conjugated with a monoclonal antibody recognising a mid-/C-terminal epitope of the peptide. Another monoclonal antibody, specific for the N-terminus, was biotinylated. The three reactants were combined with the analyte and formed a two-sited immuno-complex. Illumination of the complex released singlet oxygen atoms from the donor beads, which were channeled into the acceptor beads and triggered chemiluminescence which was measured in an Envision plate reader. The amount of light was proportional to the concentration of the compound.
Plasma concentration-time profiles were analyzed using Phoenix WinNonLin ver. 6.2, Pharsight Inc., Mountain View, Calif., USA), and the half-life (T1/2) calculated using individual plasma concentration-time profiles from each animal.

human GLP-1 receptor [3] = biological target: T1, human GLP-1 receptor; assay: GLP-1 receptor binding (SPA, displacement of 125I-GLP-1)
Method in brief: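 Tracer [125I]-GLP-1(7-36)NH2 at 0.06 nM final competed on hamster stably transfected cell membranes captured by WGA SPA beads; 120 min, 30 °C, scintillation count.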

[4] = Pharmacokinetic (PK) study in minipig; conditions: male, Göttingen, in vivo, iv
Experimental: The purpose of this study is to determine the protraction in vivo of the GLP-1 derivatives after i.v. administration to minipigs, i.e. the prolongation of their time of action. This is done in a pharmacokinetic (PK) study, where the terminal half-life of the derivative in question is determined. By terminal half-life is generally meant the period of time it takes to halve a certain plasma concentration, measured after the initial distribution phase.
Study A: Male Göttingen minipigs were obtained from Ellegaard Göttingen Minipigs (Dalmose, Denmark) approximately 7-14 months of age and weighing from approximately 16-35 kg were used in the studies. The minipigs were housed individually and fed restrictedly once or twice daily with SDS minipig diet (Special Diets Services, Essex, UK). After at least 2 weeks of acclimatisation two permanent central venous catheters were implanted in vena cava caudalis or cranialis in each animal. The animals were allowed 1 week recovery after the surgery, and were then used for repeated pharmacokinetic studies with a suitable wash-out period between successive GLP-1 derivative dosings.
The animals were fasted for approximately 18 h before dosing and from 0 to 4 h after dosing, but had ad libitum access to water during the whole period.
The GLP-1 derivatives were dissolved in 50 mM sodium phosphate, 145 mM sodium chloride, 0.05% tween 80, pH 7.4 to a concentration of usually from 20-60 nmol/ml. […] Blood samples (for example 0.8 ml) were collected in EDTA buffer (8 mM) and then centrifuged at 4° C. and 1942 G for 10 minutes.
Study B: Male Göttingen minipigs were obtained from Ellegaard Göttingen Minipigs (Dalmose, Denmark) approximately 5 months of age and weighing from approximately 9 kg were used in the studies. The minipigs were housed in pens with straw as bedding, six together in each pen and fed restrictedly once or twice daily with Altromin 9023 minipig diet (Chr. Petersen A/S, DK-4100 Ringsted) or Standard SMP(E) minipig diet (Special Diet Services (SDS), UK). The pigs were used for repeated pharmacokinetic studies with a suitable wash-out period between successive GLP-1 derivative dosings.
The GLP-1 derivatives were dissolved in 50 mM sodium phosphate, 145 mM sodium chloride, 0.05% tween 80, pH 7.4 to a concentration of usually from 20-60 nmol/ml. Intravenous injections (the volume corresponding to usually 2 nmol/kg, for example 0.1 ml/kg) of the compounds were given as intravenous injections via a Venflon inserted in an ear vein, while they are placed unanaesthetised in a sling. The dose volume was 0.1 ml/kg, and blood was sampled at predefined time points for up till 17 days post dosing (samples was taken with syringe from a jugular vein).
Individual plasma concentration-time profiles were analyzed by a non-compartmental model in Phoenix WinNonLin ver. […] (Pharsight Inc., Mountain View, Calif., USA), and the resulting terminal half-lives (harmonic mean) determined.

[5] = In vitro potency (CRE luciferase) EC50 (1% HSA), 1% HSA
[6] = Receptor binding affinity IC50 (high HSA), 2.0% HSA (high albumin)
[7] = In vitro potency (CRE luciferase) EC50 (0% HSA), 0% HSA
[8] = Receptor binding affinity IC50 (low HSA), 0.001% HSA (low albumin)

T1 sequence (P43220 24-463): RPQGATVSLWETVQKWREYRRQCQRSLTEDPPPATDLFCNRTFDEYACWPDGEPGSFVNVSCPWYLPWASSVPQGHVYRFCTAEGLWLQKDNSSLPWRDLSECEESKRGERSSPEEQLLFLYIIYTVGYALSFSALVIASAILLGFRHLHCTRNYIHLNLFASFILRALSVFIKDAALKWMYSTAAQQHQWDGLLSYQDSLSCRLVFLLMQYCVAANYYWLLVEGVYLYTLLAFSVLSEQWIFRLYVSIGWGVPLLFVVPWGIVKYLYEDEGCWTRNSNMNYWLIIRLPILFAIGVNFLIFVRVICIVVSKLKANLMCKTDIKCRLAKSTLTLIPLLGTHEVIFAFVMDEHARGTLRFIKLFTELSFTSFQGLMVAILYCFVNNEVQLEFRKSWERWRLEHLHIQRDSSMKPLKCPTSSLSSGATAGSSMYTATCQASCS

Row | SMILES | EC50 (human GLP-1 receptor [1]; [5]) | half-life [2] | IC50 (human GLP-1 receptor [3]; [6]) | EC50 (human GLP-1 receptor [1]; [7]) | EC50/pM (ratio 1% HSA/0% HSA) (human GLP-1 receptor [1]) | IC50 (human GLP-1 receptor [3]; [8]) | half-life [4]
1 | CC[C@H](C)[C@H](NC(=O)[C@H](Cc1ccccc1)NC(=O)[C@H](CCC(=O)O)NC(=O)[C@H](CCCCNC(=O)[C@@H](N)CCCCNC(=O)CNC(=O)[C@H](CO)NC(=O)[C@H](CO)NC(=O)CNC(=O)[C@H](CO)NC(=O)[C@H](CO)NC(=O)CC[C@H](NC(=O)CCCCCCCCCCCOc1ccc(C(=O)O)cc1)C(=O)O)NC(=O)[C@H](C)NC(=O)[C@H](C)NC(=O)[C@H](CCC(N)=O)NC(=O)CNC(=O)[C@H](CCC(=O)O)NC(=O)[C@H](CC(C)C)NC(=O)[C@H](Cc1ccc(O)cc1)NC(=O)[C@H](CO)NC(=O)[C@H](CO)NC(=O)[C@@H](NC(=O)[C@H](CC(=O)O)NC(=O)[C@H](CO)NC(=O)[C@@H](NC(=O)[C@H](Cc1ccccc1)NC(=O)[C@@H](NC(=O)CNC(=O)[C@H](CCC(=O)O)NC(=O)C(C)(C)NC(=O)[C@@H](N)Cc1c[nH]cn1)[C@@H](C)O)[C@@H](C)O)C(C)C)C(=O)N[C@@H](C)C(=O)N[C@@H](Cc1c[nH]c2ccccc12)C(=O)N[C@@H](CC(C)C)C(=O)N[C@H](C(=O)N[C@@H](CCCNC(=N)N)C(=O)NCC(=O)N[C@@H](CCCNC(=N)N)C(=O)N[C@@H](CCCCNC(=O)[C@@H](N)CCCCNC(=O)CNC(=O)[C@H](CO)NC(=O)[C@H](CO)NC(=O)CNC(=O)[C@H](CO)NC(=O)[C@H](CO)NC(=O)CC[C@H](NC(=O)CCCCCCCCCCCOc1ccc(C(=O)O)cc1)C(=O)O)C(=O)O)C(C)C [Example 23] | 0.156 nM | 19 h | 102 nM |  |  |  | 
2 | CC[C@H](C)[C@H](NC(=O)[C@H](Cc1ccccc1)NC(=O)[C@H](CCC(=O)O)NC(=O)[C@H](CCCCNC(=O)[C@@H](N)CCCCNC(=O)[C@@H](N)CCCCNC(=O)CC[C@H](NC(=O)CC[C@H](NC(=O)CC[C@H](NC(=O)CCCCCCCCCCOc1ccc(C(=O)O)cc1)C(=O)O)C(=O)O)C(=O)O)NC(=O)[C@H](C)NC(=O)[C@H](C)NC(=O)[C@H](CCC(N)=O)NC(=O)CNC(=O)[C@H](CCC(=O)O)NC(=O)[C@H](CC(C)C)NC(=O)[C@H](Cc1ccc(O)cc1)NC(=O)[C@H](CO)NC(=O)[C@H](CO)NC(=O)[C@@H](NC(=O)[C@H](CC(=O)O)NC(=O)[C@H](CO)NC(=O)[C@@H](NC(=O)[C@H](Cc1ccccc1)NC(=O)[C@@H](NC(=O)CNC(=O)[C@H](CCC(=O)O)NC(=O)C(C)(C)NC(=O)[C@@H](N)Cc1c[nH]cn1)[C@@H](C)O)[C@@H](C)O)C(C)C)C(=O)N[C@@H](C)C(=O)N[C@@H](Cc1c[nH]c2ccccc12)C(=O)N[C@@H](CC(C)C)C(=O)N[C@H](C(=O)N[C@@H](CCCNC(=N)N)C(=O)NCC(=O)N[C@@H](CCCNC(=N)N)C(=O)N[C@@H](CCCCNC(=O)[C@@H](N)CCCCNC(=O)[C@@H](N)CCCCNC(=O)CC[C@H](NC(=O)CC[C@H](NC(=O)CC[C@H](NC(=O)CCCCCCCCCCOc1ccc(C(=O)O)cc1)C(=O)O)C(=O)O)C(=O)O)C(=O)O)C(C)C [Example 30] | 0.093 nM | 16 h | 203 nM | 0.0054 nM | 17 | 0.42 nM | 
3 | CC[C@H](C)[C@H](NC(=O)[C@H](Cc1ccccc1)NC(=O)[C@H](CCC(=O)O)NC(=O)[C@H](CCCCNC(=O)[C@@H](N)CCCCNC(=O)[C@@H](N)CCCCNC(=O)CC[C@H](NC(=O)CCCCCCCCCCCOc1ccc(C(=O)O)cc1)C(=O)O)NC(=O)[C@H](C)NC(=O)[C@H](C)NC(=O)[C@H](CCC(N)=O)NC(=O)CNC(=O)[C@H](CCC(=O)O)NC(=O)[C@H](CC(C)C)NC(=O)[C@H](Cc1ccc(O)cc1)NC(=O)[C@H](CO)NC(=O)[C@H](CO)NC(=O)[C@@H](NC(=O)[C@H](CC(=O)O)NC(=O)[C@H](CO)NC(=O)[C@@H](NC(=O)[C@H](Cc1ccccc1)NC(=O)[C@@H](NC(=O)CNC(=O)[C@H](CCC(=O)O)NC(=O)C(C)(C)NC(=O)[C@@H](N)Cc1c[nH]cn1)[C@@H](C)O)[C@@H](C)O)C(C)C)C(=O)N[C@@H](C)C(=O)N[C@@H](Cc1c[nH]cn1)C(=O)N[C@@H](CC(C)C)C(=O)N[C@H](C(=O)N[C@@H](CCC(N)=O)C(=O)NCC(=O)N[C@@H](CCCNC(=N)N)C(=O)N[C@@H](CCCCNC(=O)[C@@H](N)CCCCNC(=O)[C@@H](N)CCCCNC(=O)CC[C@H](NC(=O)CCCCCCCCCCCOc1ccc(C(=O)O)cc1)C(=O)O)C(=O)O)C(C)C [Example 4, N^ε26-[(2S)-2-amino-6-[[(2S)-2-amino-6-[[(4S)-4-carboxy-4-[12-(4-carboxyphenoxy)dodecanoylamino]butanoyl]amino]hexanoyl]amino]hexanoyl], N^ε37-[(2S)-2-amino-6-[[(2S)-2-amino-6-[[(4S)-4-carboxy-4-[12-(4-carboxyphenoxy)dodecanoylamino]butanoyl]amino]hexanoyl]amino]hexanoyl]-[Aib^8,His^31,Gln^34,Lys^37]-GLP-1-(7-37)-peptide] | 1.61 nM | 17 h | 172 nM |  | 307 | 0.48 nM | 
4 | CC[C@H](C)[C@H](NC(=O)[C@H](Cc1ccccc1)NC(=O)[C@H](CCC(=O)O)NC(=O)[C@H](CCCCNC(=O)[C@@H](N)CCCCNC(=O)[C@@H](N)CCCCNC(=O)CC[C@H](NC(=O)CCCCCCCCCCOc1ccc(C(=O)O)cc1)C(=O)O)NC(=O)[C@H](C)NC(=O)[C@H](C)NC(=O)[C@H](CCC(N)=O)NC(=O)[C@H](CCC(=O)O)NC(=O)[C@H](CCC(=O)O)NC(=O)[C@H](CC(C)C)NC(=O)[C@H](Cc1ccc(O)cc1)NC(=O)[C@H](CO)NC(=O)[C@H](CO)NC(=O)[C@@H](NC(=O)[C@H](CC(=O)O)NC(=O)[C@H](CO)NC(=O)[C@@H](NC(=O)[C@H](Cc1ccccc1)NC(=O)[C@@H](NC(=O)CNC(=O)[C@H](CCC(=O)O)NC(=O)C(C)(C)NC(=O)[C@@H](N)Cc1c[nH]cn1)[C@@H](C)O)[C@@H](C)O)C(C)C)C(=O)N[C@@H](C)C(=O)N[C@@H](Cc1c[nH]c2ccccc12)C(=O)N[C@@H](CC(C)C)C(=O)N[C@H](C(=O)N[C@@H](CCC(N)=O)C(=O)NCC(=O)N[C@@H](CCCNC(=N)N)C(=O)N[C@@H](CCCCNC(=O)[C@@H](N)CCCCNC(=O)[C@@H](N)CCCCNC(=O)CC[C@H](NC(=O)CCCCCCCCCCOc1ccc(C(=O)O)cc1)C(=O)O)C(=O)O)C(C)C [Example 36, N^ε26-[(2S)-2-amino-6-[[(2S)-2-amino-6-[[(4S)-4-carboxy-4-[11-(4-carboxyphenoxy)undecanoylamino]butanoyl]amino]hexanoyl]amino]hexanoyl], N^ε37-[(2S)-2-amino-6-[[(2S)-2-amino-6-[[(4S)-4-carboxy-4-[11-(4-carboxyphenoxy)undecanoylamino]butanoyl]amino]hexanoyl]amino]hexanoyl]-[Aib^8,Glu^22,Gln^34,Lys^37]-GLP-1-(7-37)-peptide] (H-H[Aib]EGTFTSDVSSYLEEQAAK([εLys-εLys-γGlu-Undecanoyl(11-OPh(4-COOH))])EFIAWLVQGRK([εLys-εLys-γGlu-Undecanoyl(11-OPh(4-COOH))])-OH; N-terminus and C-terminus assumed) | 0.065 nM |  | 25 nM | 0.0049 nM | 14 | 0.1 nM | 69 h

Reference: US10604554B2, “Double-acylated GLP-1 derivatives” (Novo Nordisk A/S, priority 2012, dated 2020)
